Columns and labels:
human MAGL = molecular target: T1, human MAGL (Homo sapiens, UniProt Q99685); settings: = pIC50 - cLogP
T1 sequence (Q99685 1-303): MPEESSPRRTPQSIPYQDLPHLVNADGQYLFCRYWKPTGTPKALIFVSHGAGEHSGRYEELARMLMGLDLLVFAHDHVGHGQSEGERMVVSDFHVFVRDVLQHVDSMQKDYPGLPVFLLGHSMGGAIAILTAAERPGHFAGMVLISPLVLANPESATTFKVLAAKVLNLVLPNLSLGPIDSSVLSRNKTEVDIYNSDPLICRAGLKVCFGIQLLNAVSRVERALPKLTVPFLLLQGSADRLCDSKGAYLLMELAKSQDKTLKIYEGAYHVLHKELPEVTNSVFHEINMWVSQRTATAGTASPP

5HT1A = 5HT1A (Homo sapiens, UniProt P08908); settings: 10 uM; n=2
5HT3 = 5HT3 (Homo sapiens, UniProt P46098); settings: 10 uM; n=2
ABL1 = ABL1 (Homo sapiens, UniProt P00519); settings: 10 uM; n=2
ACETYLCHOLINESTERASE = ACETYLCHOLINESTERASE (Homo sapiens, UniProt P22303); settings: 10 uM; n=2
ADENOSINE A1 REC. = ADENOSINE A1 REC. (Homo sapiens, UniProt P30542); settings: 10 uM; n=2
ADENOSINE A3 REC. = ADENOSINE A3 REC. (Homo sapiens, UniProt P0DMS8); settings: 10 uM; n=2
α1A-ADRENOCEPTOR = α1A-ADRENOCEPTOR (Homo sapiens, UniProt P35348); settings: 10 uM; n=2
α2A-ADRENOCEPTOR = α2A-ADRENOCEPTOR (Homo sapiens, UniProt P08913); settings: 10 uM; n=2
ANDROGEN REC. = ANDROGEN REC. (Homo sapiens, UniProt P10275); settings: 10 uM; n=2
ANDROGEN REC., sequence (P10275 whole entry): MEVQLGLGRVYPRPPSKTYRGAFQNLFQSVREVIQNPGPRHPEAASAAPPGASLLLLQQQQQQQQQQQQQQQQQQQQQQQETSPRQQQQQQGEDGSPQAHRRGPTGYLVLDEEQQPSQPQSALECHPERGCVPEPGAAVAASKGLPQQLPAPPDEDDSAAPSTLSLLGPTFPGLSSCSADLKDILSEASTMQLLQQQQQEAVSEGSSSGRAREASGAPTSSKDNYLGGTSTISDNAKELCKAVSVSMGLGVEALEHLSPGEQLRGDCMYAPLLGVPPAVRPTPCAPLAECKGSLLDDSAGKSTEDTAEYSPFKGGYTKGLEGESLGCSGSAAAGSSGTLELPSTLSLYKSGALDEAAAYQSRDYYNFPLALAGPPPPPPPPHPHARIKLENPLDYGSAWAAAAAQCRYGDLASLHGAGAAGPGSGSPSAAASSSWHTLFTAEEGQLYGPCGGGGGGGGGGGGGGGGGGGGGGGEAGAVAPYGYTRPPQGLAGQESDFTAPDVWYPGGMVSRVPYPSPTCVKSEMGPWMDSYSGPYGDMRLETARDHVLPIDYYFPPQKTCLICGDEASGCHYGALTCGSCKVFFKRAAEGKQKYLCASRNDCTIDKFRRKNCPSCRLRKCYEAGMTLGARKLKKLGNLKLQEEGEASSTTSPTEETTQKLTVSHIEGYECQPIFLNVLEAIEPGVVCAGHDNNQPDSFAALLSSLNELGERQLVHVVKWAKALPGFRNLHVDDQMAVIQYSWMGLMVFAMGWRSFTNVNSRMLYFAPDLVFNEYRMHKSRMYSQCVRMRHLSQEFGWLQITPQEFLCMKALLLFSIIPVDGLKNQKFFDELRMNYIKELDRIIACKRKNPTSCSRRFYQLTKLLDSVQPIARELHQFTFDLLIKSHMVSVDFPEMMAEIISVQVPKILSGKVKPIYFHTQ

A[…]. ENZ. = A[…]. ENZ. (Homo sapiens, UniProt P12821); settings: 10 uM; n=2
ANGIOTENSIN II REC. 1 = ANGIOTENSIN II REC. 1 (Homo sapiens, UniProt P30556); settings: 10 uM; n=2
β1-ADRENOCEPTOR = β1-ADRENOCEPTOR (Homo sapiens, UniProt P08588); settings: 10 uM; n=2
UniProt P08588, sequence (P08588 whole entry): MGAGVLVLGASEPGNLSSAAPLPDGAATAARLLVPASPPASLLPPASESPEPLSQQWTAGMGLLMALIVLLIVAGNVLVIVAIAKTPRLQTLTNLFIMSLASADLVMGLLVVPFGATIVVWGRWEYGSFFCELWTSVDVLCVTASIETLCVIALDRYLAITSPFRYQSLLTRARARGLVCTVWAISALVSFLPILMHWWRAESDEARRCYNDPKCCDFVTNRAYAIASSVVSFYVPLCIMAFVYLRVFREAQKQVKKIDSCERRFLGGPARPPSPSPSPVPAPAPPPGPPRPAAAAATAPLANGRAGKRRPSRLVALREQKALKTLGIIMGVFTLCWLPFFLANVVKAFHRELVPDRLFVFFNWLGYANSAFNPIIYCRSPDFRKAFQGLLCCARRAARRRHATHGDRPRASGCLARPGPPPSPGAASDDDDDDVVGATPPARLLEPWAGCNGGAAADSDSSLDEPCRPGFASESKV

β2-ADRENOCEPTOR = β2-ADRENOCEPTOR (Homo sapiens, UniProt P07550); settings: 10 uM; n=2
UniProt P07550, sequence (P07550 whole entry): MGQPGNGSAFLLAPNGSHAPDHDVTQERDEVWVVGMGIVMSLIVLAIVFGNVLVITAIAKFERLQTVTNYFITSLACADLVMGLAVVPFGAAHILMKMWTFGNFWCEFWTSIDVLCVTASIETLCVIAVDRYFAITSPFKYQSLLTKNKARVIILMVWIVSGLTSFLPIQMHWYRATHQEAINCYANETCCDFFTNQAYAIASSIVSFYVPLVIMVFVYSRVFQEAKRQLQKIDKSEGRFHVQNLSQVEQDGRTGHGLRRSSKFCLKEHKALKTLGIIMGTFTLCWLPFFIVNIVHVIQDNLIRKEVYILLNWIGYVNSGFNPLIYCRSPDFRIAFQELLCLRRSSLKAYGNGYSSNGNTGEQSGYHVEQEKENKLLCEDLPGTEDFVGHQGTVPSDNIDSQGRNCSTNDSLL

C[…]. CB1 = C[…]. CB1 (Homo sapiens, UniProt P21554); settings: 10 uM; n=2
CHOLECYSTOKININ 1 REC. = CHOLECYSTOKININ 1 REC. (Homo sapiens, UniProt P32238); settings: 10 uM; n=2
UniProt P32238, sequence (P32238 whole entry): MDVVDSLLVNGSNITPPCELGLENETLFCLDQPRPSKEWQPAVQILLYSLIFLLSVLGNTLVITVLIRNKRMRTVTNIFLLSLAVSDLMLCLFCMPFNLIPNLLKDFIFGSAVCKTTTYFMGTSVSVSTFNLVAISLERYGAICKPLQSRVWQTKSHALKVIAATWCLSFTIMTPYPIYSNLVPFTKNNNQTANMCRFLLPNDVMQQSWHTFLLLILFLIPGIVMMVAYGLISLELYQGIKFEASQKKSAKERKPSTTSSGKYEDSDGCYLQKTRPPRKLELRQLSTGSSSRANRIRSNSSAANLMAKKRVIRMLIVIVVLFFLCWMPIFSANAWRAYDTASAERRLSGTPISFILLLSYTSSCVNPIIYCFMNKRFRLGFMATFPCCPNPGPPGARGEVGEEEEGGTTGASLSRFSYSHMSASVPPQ

CYCLO OXYGENASE 2 = CYCLO OXYGENASE 2 (Homo sapiens, UniProt P35354); settings: 10 uM; n=2
DOPAMINE D1 REC. = DOPAMINE D1 REC. (Homo sapiens, UniProt P21728); settings: 10 uM; n=2
ESTROGEN REC. α = ESTROGEN REC. α (Homo sapiens, UniProt P03372); settings: 10 uM; n=2
GSK-3A = GSK-3A (Homo sapiens, UniProt P49840); settings: 10 uM; n=2
GSK-3B = GSK-3B (Homo sapiens, UniProt P49841); settings: 10 uM; n=2
HISTAMINE H1 REC. = HISTAMINE H1 REC. (Homo sapiens, UniProt P35367); settings: 10 uM; n=2
HISTAMINE H1 REC., sequence (P35367 whole entry): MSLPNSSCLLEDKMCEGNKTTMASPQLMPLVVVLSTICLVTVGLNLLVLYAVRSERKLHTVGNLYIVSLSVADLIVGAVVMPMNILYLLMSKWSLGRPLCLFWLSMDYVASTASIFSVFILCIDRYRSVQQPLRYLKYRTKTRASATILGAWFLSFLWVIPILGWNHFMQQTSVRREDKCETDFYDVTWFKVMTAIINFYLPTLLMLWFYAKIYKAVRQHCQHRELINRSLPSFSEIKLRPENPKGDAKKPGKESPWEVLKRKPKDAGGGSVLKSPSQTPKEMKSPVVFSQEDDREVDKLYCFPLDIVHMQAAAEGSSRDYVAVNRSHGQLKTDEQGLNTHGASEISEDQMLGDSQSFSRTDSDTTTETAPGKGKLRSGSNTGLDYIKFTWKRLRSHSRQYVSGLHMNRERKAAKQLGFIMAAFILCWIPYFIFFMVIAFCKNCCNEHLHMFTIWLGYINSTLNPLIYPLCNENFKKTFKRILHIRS

HISTAMINE H2 REC. = HISTAMINE H2 REC. (Homo sapiens, UniProt P25021); settings: 10 uM; n=2
HIV-1 PROTEASE = HIV-1 PROTEASE (Human immunodeficiency virus type 1 group M subtype B, UniProt P04585); settings: 10 uM; n=2
κ OPIOID REC. = κ OPIOID REC. (Homo sapiens, UniProt P41145); settings: 10 uM; n=2
MONOAMINE OXIDASE-A = MONOAMINE OXIDASE-A (Homo sapiens, UniProt P21397); settings: 10 uM; n=2
MONOAMINE OXIDASE-A, sequence (P21397 whole entry): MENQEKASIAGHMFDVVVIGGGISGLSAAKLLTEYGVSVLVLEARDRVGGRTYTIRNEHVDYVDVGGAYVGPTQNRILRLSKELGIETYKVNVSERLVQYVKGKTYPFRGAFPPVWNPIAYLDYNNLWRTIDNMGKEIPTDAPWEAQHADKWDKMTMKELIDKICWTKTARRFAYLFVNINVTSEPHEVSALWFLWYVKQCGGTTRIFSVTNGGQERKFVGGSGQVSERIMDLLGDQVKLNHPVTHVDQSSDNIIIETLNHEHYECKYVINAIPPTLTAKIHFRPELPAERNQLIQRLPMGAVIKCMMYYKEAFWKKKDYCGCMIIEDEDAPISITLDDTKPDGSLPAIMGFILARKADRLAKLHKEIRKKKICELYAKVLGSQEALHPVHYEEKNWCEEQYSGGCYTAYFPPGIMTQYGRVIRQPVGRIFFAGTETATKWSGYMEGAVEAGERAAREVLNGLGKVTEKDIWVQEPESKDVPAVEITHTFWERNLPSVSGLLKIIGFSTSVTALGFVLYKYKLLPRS

μ OPIOID REC. = μ OPIOID REC. (Homo sapiens, UniProt P35372); settings: 10 uM; n=2
μ OPIOID REC., sequence (P35372 whole entry): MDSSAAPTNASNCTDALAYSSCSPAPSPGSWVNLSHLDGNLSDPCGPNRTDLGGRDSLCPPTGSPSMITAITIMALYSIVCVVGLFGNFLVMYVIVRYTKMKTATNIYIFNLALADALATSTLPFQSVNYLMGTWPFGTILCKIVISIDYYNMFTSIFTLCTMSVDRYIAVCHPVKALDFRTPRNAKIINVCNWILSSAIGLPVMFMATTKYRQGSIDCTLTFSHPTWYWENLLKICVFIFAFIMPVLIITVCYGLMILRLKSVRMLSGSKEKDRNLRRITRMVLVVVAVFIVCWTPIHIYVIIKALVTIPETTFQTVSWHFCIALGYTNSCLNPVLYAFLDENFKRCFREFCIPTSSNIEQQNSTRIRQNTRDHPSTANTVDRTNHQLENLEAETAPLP

[…]. M1 = […]. M1 (Homo sapiens, UniProt P11229); settings: 10 uM; n=2
[…]. M2 = […]. M2 (Homo sapiens, UniProt P08172); settings: 10 uM; n=2
[…]. M2, sequence (P08172 whole entry): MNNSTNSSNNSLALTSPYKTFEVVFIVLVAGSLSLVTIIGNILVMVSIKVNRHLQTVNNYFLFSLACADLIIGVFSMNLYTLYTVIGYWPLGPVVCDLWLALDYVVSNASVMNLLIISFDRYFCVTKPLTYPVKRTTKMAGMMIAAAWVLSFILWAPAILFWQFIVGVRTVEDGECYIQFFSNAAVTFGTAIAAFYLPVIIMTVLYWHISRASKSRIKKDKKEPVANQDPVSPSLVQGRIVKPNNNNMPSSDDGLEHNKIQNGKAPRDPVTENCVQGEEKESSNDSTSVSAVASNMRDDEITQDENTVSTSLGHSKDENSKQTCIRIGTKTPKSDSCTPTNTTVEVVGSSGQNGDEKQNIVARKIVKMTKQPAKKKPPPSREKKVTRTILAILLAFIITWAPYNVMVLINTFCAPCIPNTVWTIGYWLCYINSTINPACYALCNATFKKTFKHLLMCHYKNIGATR

NORE[…]. = NORE[…]. (Homo sapiens, UniProt P23975); settings: 10 uM; n=2
PHOSPHODIESTERASE 3B = PHOSPHODIESTERASE 3B (Homo sapiens, UniProt Q13370); settings: 10 uM; n=2
PHOSPHODIESTERASE 4D2 = PHOSPHODIESTERASE 4D2 (Homo sapiens, UniProt Q08499); settings: 10 uM; n=2
UniProt Q08499, sequence (Q08499 303-809): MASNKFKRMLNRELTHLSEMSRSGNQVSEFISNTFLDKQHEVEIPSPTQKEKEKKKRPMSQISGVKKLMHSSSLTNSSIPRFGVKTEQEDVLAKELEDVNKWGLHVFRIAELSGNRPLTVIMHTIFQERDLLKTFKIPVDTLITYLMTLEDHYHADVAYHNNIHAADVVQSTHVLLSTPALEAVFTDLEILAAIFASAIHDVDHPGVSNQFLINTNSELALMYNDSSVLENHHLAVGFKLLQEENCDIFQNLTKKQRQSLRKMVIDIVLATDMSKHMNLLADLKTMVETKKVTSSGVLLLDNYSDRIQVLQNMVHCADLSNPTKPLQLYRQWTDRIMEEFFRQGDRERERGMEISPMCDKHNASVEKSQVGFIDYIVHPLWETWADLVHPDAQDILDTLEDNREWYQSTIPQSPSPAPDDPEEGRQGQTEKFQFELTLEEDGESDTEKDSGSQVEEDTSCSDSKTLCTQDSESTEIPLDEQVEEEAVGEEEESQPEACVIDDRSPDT

PPARγ = PPARγ (Homo sapiens, UniProt P37231); settings: 10 uM; n=2
PROSTAGLANDIN F REC. = PROSTAGLANDIN F REC. (Homo sapiens, UniProt P43088); settings: 10 uM; n=2
UniProt P43088, sequence (P43088 whole entry): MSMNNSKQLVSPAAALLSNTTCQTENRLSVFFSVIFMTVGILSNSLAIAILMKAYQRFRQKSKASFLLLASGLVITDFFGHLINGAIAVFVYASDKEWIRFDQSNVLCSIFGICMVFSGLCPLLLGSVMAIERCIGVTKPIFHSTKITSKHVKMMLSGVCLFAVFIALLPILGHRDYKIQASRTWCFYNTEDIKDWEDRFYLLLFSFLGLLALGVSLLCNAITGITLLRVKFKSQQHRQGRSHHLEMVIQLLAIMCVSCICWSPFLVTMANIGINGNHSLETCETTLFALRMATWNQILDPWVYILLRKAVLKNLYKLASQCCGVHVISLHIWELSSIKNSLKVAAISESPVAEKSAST

XANTHINE OXIDASE = XANTHINE OXIDASE (Bos taurus, UniProt P80457); settings: 10 uM; n=2
ZAP70 = ZAP70 (Homo sapiens, UniProt P43403); settings: 10 uM; n=2
[1] = system: closely related brain hydrolases; settings: activity-based protein profiling, mouse brain, 10 µM

With `O=C(c1ccc2nc(-c3cnccc3C3(C4CCC4)CC3)oc2c1)N1CCN(c2nc3nc(Cl)ccc3o2)CC1` [Compound 27] the “Lipophilic efficiency (LipE)” value (human MAGL) was 3.72, the “5HT1A percent activity or inhibition compared to the assay reference” value (5HT1A) was 28% and the “5HT3 percent activity or inhibition compared to the assay reference” value (5HT3) was -3%. For the same compound, the “ABL1 percent activity or inhibition compared to the assay reference” value (ABL1) was -3%, the “ACETYLCHOLINESTERASE percent activity or inhibition compared to the assay reference” value (ACETYLCHOLINESTERASE) was -4% and the “ADENOSINE A1 REC. percent activity or inhibition compared to the assay reference” value (ADENOSINE A1 REC.) was 13%. The “ADENOSINE A3 REC. percent activity or inhibition compared to the assay reference” value (ADENOSINE A3 REC.) was 7%, the “α1A-ADRENOCEPTOR percent activity or inhibition compared to the assay reference” value (α1A-ADRENOCEPTOR) was 5% and the “α2A-ADRENOCEPTOR percent activity or inhibition compared to the assay reference” value (α2A-ADRENOCEPTOR) was 0%. The “ANDROGEN REC. percent activity or inhibition compared to the assay reference” value (ANDROGEN REC.) was -6%, the “A[…]. ENZ. percent activity or inhibition compared to the assay reference” value (A[…]. ENZ.) was -12% and the “ANGIOTENSIN II REC. 1 percent activity or inhibition compared to the assay reference” value (ANGIOTENSIN II REC. 1) was -1%. For the same compound, the “β1-ADRENOCEPTOR percent activity or inhibition compared to the assay reference” value (β1-ADRENOCEPTOR) was 4%, the “β2-ADRENOCEPTOR percent activity or inhibition compared to the assay reference” value (β2-ADRENOCEPTOR) was -2% and the “C[…]. CB1 percent activity or inhibition compared to the assay reference” value (C[…]. CB1) was 18%. The “CHOLECYSTOKININ 1 REC. percent activity or inhibition compared to the assay reference” value (CHOLECYSTOKININ 1 REC.) was 4%, the “CYCLO OXYGENASE 2 percent activity or inhibition compared to the assay reference” value (CYCLO OXYGENASE 2) was 6% and the “DOPAMINE D1 REC. percent activity or inhibition compared to the assay reference” value (DOPAMINE D1 REC.) was -2%. The “ESTROGEN REC. α percent activity or inhibition compared to the assay reference” value (ESTROGEN REC. α) was -20%, the “GSK-3A percent activity or inhibition compared to the assay reference” value (GSK-3A) was 30% and the “GSK-3B percent activity or inhibition compared to the assay reference” value (GSK-3B) was -8%. The “HISTAMINE H1 REC. percent activity or inhibition compared to the assay reference” value (HISTAMINE H1 REC.) was 48%, the “HISTAMINE H2 REC. percent activity or inhibition compared to the assay reference” value (HISTAMINE H2 REC.) was -4% and the “HIV-1 PROTEASE percent activity or inhibition compared to the assay reference” value (HIV-1 PROTEASE) was 34%. The “κ OPIOID REC. percent activity or inhibition compared to the assay reference” value (κ OPIOID REC.) was 48%, the “MONOAMINE OXIDASE-A percent activity or inhibition compared to the assay reference” value (MONOAMINE OXIDASE-A) was -2% and the “μ OPIOID REC. percent activity or inhibition compared to the assay reference” value (μ OPIOID REC.) was 16%. For the same compound, the “[…]. M1 percent activity or inhibition compared to the assay reference” value ([…]. M1) was 52%, the “[…]. M2 percent activity or inhibition compared to the assay reference” value ([…]. M2) was 76% and the “NORE[…]. percent activity or inhibition compared to the assay reference” value (NORE[…].) was 28%. For the same compound, the “PHOSPHODIESTERASE 3B percent activity or inhibition compared to the assay reference” value (PHOSPHODIESTERASE 3B) was 1%, the “PHOSPHODIESTERASE 4D2 percent activity or inhibition compared to the assay reference” value (PHOSPHODIESTERASE 4D2) was -7% and the “PPARγ percent activity or inhibition compared to the assay reference” value (PPARγ) was 9%. The “PROSTAGLANDIN F REC. percent activity or inhibition compared to the assay reference” value (PROSTAGLANDIN F REC.) was 0%, the “XANTHINE OXIDASE percent activity or inhibition compared to the assay reference” value (XANTHINE OXIDASE) was 6% and the “ZAP70 percent activity or inhibition compared to the assay reference” value (ZAP70) was -15%. The “selectivity toward MAGL over off-targets and closely related brain hydrolases” value [1] was “high selectivity”.
